The source of these data is US20030176314A1, “Compounds for the treatment of pain” (priority 2001, published 2003).

The structures appear in SMILES notation. pKi: −log10 of the molar value.

For assay [1], the target named is T1, human α1A adrenergic receptor (Homo sapiens, UniProt P35348).
T1 construct: host or cells: LM(tk-) cells, line L-α1C
T1 sequence (P35348 1-466): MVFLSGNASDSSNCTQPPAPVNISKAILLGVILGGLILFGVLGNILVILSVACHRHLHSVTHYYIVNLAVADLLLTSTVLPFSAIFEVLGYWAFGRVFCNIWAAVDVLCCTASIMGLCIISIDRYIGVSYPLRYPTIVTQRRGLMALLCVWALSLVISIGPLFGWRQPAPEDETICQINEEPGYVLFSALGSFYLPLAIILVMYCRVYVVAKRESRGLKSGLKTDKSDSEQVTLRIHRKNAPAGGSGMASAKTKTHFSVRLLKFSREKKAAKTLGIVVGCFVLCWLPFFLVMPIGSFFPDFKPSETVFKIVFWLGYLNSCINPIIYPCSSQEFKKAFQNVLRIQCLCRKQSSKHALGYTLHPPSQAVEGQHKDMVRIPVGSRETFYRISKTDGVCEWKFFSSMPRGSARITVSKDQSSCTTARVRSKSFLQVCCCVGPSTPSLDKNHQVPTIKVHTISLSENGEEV
Description: Binding at human α1A adrenergic receptor. Conditions: Table 8; read-out: hα1A Ki. From the text:
(§1) α1 Human Adrenergic Receptors: To determine the binding of compounds to human α1 receptors, LM(tk−) cell lines stably transfected with the genes encoding the α1a, α1b, and α1d receptors were used. The nomenclature describing the α1 receptors was changed recently, such that the receptor formerly designated α1a is now designated α1d, and the receptor formerly designated α1c is now designated α1a. The cell lines expressing these receptors were deposited with the ATCC before the nomenclature change and reflect the subtype designations formerly assigned to these receptors. Thus, the cell line expressing the receptor described herein as the α1a receptor was deposited with the ATCC on Sep. […] The cell line expressing receptor described herein as the α1d receptor was deposited with the ATCC on Sep. […] The cell line expressing the α1b receptor is designated L-α1B, and was deposited on Sep.
(§2) The binding affinity (Ki) of these compounds were tested according to the protocols described herein at the following receptors; human α1A, α1B, α1D, α2A, α2B, and α2C adrenergic receptors; human Y1, Y2, Y4, and Y5 receptors; and N-Methyl-D-aspartic acid (NMDA) receptor channels. The binding interactions of these compounds were additionally tested at the norepinephrine (NE) transporter (NE uptake) and serotonin (5-hydroxytryptamine (5HT)) transporter (5HT uptake) according to protocols described herein

The target in assay [2] is T2, human α1D adrenergic receptor (Homo sapiens, UniProt P25100).
T2 construct: host or cells: LM(tk-) cells, line L-α1A
T2 sequence (P25100 1-572): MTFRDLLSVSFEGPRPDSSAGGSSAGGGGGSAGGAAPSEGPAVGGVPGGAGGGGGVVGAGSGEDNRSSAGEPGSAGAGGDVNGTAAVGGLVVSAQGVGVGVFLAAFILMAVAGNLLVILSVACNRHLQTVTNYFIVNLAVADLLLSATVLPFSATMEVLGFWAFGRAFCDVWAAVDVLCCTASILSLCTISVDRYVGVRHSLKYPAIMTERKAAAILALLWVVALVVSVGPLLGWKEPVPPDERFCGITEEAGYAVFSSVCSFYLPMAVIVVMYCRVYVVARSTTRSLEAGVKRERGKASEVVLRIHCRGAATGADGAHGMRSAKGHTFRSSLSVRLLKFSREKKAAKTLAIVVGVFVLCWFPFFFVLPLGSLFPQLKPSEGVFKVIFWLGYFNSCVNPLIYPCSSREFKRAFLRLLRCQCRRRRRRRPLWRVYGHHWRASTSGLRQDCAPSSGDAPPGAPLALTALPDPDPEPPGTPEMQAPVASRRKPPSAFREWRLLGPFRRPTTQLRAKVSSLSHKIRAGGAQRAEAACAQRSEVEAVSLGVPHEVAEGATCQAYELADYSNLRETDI
Put plainly: Binding at human α1D adrenergic receptor. Conditions: Table 8; read-out: hα1D Ki.
Source text: as §1, §2

In the next assay the target is T3, rat NPFF2 receptor (Rattus norvegicus, UniProt Q9EQD2).
T3 construct: The full-length NPFF2 was amplified from rat spinal cord cDNA; expressed in transfected cells; host or cells: not given
T3 sequence (Q9EQD2 whole entry): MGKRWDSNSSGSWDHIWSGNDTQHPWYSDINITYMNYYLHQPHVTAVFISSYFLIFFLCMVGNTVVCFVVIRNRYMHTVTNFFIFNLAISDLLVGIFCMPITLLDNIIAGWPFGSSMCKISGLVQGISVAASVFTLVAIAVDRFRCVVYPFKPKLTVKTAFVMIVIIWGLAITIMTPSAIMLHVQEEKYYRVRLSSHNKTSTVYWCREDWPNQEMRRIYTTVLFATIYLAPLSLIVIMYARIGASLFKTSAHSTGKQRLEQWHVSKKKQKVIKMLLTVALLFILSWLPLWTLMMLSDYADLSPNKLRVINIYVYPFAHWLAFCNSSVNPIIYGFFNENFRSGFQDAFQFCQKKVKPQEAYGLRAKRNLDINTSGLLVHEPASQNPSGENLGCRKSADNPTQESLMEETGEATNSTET
Description: Functional assay (agonist potency, intrinsic activity) at cloned rat NPFF2 receptor. The assay is classed as cell-based. Conditions: Table 7, intrinsic activity.

Assay [3] deals with T4, human α1B adrenergic receptor (Homo sapiens, UniProt P35368).
T4 construct: host or cells: LM(tk-) cells, line L-α1B
T4 sequence (P35368 1-520): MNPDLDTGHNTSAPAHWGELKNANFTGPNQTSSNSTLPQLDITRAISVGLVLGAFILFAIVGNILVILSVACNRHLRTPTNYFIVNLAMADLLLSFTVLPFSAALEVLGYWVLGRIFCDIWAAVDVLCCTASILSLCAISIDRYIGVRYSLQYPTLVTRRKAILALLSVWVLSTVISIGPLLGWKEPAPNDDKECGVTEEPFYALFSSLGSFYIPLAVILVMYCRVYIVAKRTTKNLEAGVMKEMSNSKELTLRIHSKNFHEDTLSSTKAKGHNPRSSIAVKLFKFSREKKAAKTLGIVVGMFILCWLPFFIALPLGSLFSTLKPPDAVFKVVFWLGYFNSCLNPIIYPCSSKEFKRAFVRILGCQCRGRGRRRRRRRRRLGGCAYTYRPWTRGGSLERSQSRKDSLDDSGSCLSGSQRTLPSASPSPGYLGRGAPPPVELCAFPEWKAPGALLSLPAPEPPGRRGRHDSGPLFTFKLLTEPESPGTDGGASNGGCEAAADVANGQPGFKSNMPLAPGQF
Description: Binding at human α1B adrenergic receptor. The note with it: Table 8; read-out: hα1B Ki.
Source text: as §1, §2

For a further assay, the target named is T5, human Y5 receptor (Homo sapiens, UniProt Q15761).
T5 construct: host or cells: L cells, line L-hY5-7
T5 sequence (Q15761 1-445): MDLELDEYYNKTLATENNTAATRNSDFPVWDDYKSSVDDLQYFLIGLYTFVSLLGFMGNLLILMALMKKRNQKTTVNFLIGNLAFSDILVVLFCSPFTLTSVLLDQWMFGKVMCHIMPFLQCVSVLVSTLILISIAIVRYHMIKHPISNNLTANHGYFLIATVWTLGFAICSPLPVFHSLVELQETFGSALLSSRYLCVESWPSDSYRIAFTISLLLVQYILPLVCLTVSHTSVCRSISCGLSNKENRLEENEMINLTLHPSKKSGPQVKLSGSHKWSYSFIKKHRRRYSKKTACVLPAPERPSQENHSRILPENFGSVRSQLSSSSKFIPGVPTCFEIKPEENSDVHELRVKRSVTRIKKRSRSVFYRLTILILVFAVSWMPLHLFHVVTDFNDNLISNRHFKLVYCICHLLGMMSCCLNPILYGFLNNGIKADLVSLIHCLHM
Description: Binding at human neuropeptide Y Y5 receptor. Conditions: Table 8; read-out: hY5 Ki.
Source text: (§3) Neuropeptide receptors: Stably transfected cell lines which may be used for binding experiments include, for the Y1 receptor, 293-hY1-5 (deposited Jun. 4, 1996, under ATCC Accession No. CRL-12121); for the Y2 receptor, 293-hY2-10 (deposited Jan. 27, 1994, under ATCC Accession No. CRL-11837); for the Y4 receptor, L-hY4-3 (deposited Jan. 11, 1995, under ATCC Accession No. CRL 11779); and for the Y5 receptor, L-hY5-7 (deposited Nov. 15, 1995, under ATCC Accession No. CRL 11995).
(§4) Binding assays using the NPY receptors may be carried out according to the procedures described in U.S. Pat. No. 5,602,024, the disclosure of which is hereby incorporated by reference in its entirety into this application.
as §2

Assay [4] addresses T6, serotonin (5HT) transporter (Rattus norvegicus, UniProt P31652).
T6 construct: evaluated at native, tissue-derived transporters; from tissue
Put plainly: Binding at native serotonin transporter (5HT uptake). The note with it: Table 8. As to the method: (§5) Transporters: The binding properties of compounds were evaluated at native, tissue-derived transporters, namely serotonin (5HT) transporter and norepinephrine (NE) transporter, according to protocols described in Owens (1997), the disclosure of which is hereby incorporated by reference in its entirety into this application.
as §2

In another assay the target is T7, human Y4 receptor (Homo sapiens, UniProt P50391).
T7 construct: host or cells: L cells, line L-hY4-3
T7 sequence (P50391 whole entry): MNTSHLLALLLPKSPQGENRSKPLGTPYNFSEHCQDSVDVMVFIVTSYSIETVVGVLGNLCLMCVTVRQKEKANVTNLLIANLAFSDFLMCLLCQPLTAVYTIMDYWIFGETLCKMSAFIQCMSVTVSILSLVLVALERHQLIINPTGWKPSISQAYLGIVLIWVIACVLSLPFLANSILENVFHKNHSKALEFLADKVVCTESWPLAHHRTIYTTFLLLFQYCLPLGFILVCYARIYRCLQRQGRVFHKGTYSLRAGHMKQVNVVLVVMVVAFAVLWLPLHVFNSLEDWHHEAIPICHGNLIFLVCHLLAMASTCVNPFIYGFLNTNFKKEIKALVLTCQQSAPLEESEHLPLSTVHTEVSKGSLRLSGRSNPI
Description: Binding at human neuropeptide Y Y4 receptor. Conditions: Table 8; read-out: hY4 Ki.
Source text: as §3, §4, §2

In another assay the target is T8, human Y1 receptor (Homo sapiens, UniProt P25929).
T8 construct: host or cells: 293 cells, line 293-hY1-5
T8 sequence (P25929 1-384): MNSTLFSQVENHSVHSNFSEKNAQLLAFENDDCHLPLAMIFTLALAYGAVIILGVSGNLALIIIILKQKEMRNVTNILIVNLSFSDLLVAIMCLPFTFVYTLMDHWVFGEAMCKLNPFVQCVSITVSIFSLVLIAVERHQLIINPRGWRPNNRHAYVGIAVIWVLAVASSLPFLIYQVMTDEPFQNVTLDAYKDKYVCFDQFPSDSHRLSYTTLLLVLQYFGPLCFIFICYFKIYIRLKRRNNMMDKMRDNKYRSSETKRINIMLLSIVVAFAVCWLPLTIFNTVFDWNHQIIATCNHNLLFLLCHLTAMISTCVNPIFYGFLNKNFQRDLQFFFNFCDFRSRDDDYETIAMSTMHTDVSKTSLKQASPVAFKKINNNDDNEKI
Put plainly: Binding at human neuropeptide Y Y1 receptor. The note with it: Table 8; read-out: hY1 Ki.
Source text: as §3, §4, §2

The target in assay [5] is T9, norepinephrine (NE) transporter (Rattus norvegicus, UniProt Q63380).
T9 construct: evaluated at native, tissue-derived transporters; from tissue
T9 sequence (Q63380 1-617): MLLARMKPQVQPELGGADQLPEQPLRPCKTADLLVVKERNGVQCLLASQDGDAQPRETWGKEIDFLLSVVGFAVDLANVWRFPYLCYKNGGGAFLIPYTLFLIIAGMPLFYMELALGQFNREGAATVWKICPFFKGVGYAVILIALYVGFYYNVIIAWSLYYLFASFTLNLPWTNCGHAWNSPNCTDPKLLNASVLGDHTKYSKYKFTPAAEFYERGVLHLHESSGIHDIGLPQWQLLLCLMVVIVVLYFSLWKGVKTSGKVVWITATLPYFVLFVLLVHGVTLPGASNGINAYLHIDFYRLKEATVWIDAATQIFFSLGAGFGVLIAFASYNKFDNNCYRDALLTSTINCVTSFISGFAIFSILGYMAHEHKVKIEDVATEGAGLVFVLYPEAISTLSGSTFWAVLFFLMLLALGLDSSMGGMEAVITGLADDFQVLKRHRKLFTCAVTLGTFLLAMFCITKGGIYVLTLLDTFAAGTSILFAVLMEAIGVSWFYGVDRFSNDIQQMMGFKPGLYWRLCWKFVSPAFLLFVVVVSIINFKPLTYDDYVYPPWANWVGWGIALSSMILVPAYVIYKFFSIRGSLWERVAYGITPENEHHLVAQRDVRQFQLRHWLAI
Put plainly: Binding at native norepinephrine transporter (NE uptake). Conditions: Table 8. As to the method:
as §5, §2

Another assay deals with T10, human Y2 receptor (Homo sapiens, UniProt P49146).
T10 construct: host or cells: 293 cells, line 293-hY2-10
T10 sequence (P49146 1-381): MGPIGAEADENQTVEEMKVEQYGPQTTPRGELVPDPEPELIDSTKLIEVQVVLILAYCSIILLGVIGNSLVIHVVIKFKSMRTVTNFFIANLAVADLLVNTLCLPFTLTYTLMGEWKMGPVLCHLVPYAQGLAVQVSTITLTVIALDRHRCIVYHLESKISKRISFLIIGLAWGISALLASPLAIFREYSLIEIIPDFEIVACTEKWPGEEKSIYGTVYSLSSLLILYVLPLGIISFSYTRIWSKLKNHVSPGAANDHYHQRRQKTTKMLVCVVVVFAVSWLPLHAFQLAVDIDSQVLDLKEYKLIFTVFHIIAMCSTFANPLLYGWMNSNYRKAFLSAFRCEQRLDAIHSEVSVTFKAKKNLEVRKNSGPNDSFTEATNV
Description: Binding at human neuropeptide Y Y2 receptor. Conditions: Table 8; read-out: hY2 Ki.
Source text: as §3, §4, §2

T6 sequence (P31652 whole entry): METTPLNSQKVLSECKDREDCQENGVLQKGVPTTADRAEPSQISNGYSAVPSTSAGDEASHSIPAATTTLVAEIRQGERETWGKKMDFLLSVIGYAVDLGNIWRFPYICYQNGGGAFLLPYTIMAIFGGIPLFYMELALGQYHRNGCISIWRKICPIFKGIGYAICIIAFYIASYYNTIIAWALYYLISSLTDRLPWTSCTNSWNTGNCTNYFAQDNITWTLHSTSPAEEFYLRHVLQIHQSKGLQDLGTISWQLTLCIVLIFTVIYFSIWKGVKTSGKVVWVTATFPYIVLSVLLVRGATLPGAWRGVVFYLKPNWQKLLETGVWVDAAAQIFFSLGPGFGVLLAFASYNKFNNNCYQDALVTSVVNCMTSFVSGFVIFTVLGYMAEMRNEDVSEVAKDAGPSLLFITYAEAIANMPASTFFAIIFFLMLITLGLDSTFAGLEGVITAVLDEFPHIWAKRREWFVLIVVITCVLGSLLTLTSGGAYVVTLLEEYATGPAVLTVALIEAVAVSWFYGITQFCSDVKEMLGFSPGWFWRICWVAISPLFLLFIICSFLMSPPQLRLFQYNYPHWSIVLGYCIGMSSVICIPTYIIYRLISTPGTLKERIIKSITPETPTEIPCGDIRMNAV

In the case of `Cc1nc(NC(=N)N)nc2ccccc12` [Compound 1001A, N-(4-methyl-2-quinazolinyl)guanidine], the pKi in assay [1] was 5.30; in assay [2], 4.89; in [3], 5.01. Besides, the “rNPFF2 IA” value on rat NPFF2 receptor was found to be 16% NPFF.
Turning to `Cc1cc(NC(=N)N)nc2ccccc12` [Compound 6001A, N-(4-methyl-2-quinolinyl)guanidine], the pKi is 6.13 at human Y5 receptor; 4.98 in [4]; 4.85 at human Y4 receptor; less than 4.30 on human Y1 receptor; 4.90 in assay [5]; less than 4.30 on human Y2 receptor.
